The source of these data is US20240374606A1, “SUBSTITUTED PYRAZINE-2-CARBOXAMIDES AS HPK1 INHIBITORS FOR THE TREATMENT OF CANCER” (ASTRAZENECA AB, priority 2021, published 2024).

Each structure is given as a SMILES string. Counter-ions that a name gives are not always drawn.

Usually EC50 stands for the concentration at which the effect is half-maximal.

What all share (type): cell-based
One assay deals with human CD3+ T cells. As to the kind of experiment: T cell assay (IL2 in supernatant, anti-CD3/anti-CD28 stimulation). The note with it: for EC50: T-cell, 4 hours anti-CD3/anti-CD28, read-out: IL-2 EC50.
Assay [1] has as its system pSLP76. Description: Flow pSLP76.
Assay [2] relates to pSLP76. As to the kind of experiment: WB pSLP76.

Description for human CD3+ T cells: Cryo-preserved human CD3+ T cells are recovered in warm T cell media overnight. […] T cells are then left in a humidified incubator at 37° C. for 1 hour. […] Anti-CD28 antibody in T cell media is also added to the cells by Bravo liquid handler at 5 ug/mL or 1 μg/mL in a donor dependent manner. T cells are then incubated in a humidified incubator at 37° C. for 4 hours. […] IL2 is detected using a IL2 MultiCyt® QBeads® kit on an iQue Screener flow cytometer (Sartorius). Briefly, capture beads are diluted by 50× in the supplied capture bead diluent. […] Using a Bravo liquid handler, 10 ul cell culture supernatant is transferred to the v-bottom plate with diluted capture beads. The plate is then sealed in foil and incubate at room temperature on a plate shaker set to 900 rpm for 1 hour. At the end of incubation, 10 μL per well of the supplied detection reagent is added to the wells using a ThermoFisher multichannel pipette. The plate is then sealed in foil and incubate again at room temperature on a plate shaker set to 900 rpm for 2 hours before detection by iQue Screener. iQue Screener flow cytometer uses pre-configured analysis template supplied with the IL2 MultiCyt® QBeads® kit to detect IL2 in each sample wells.

With `CNc1nc(Nc2ccc(CN3C[C@H]4C[C@@H]3CO4)cc2F)c(C(N)=O)nc1-c1cncc2c1ncn2C` [Example 146, 3-[2-Fluoro-4-[[(1R,4R)-2-oxa-5-azabicyclo[2.2.1]heptan-5-yl]methyl]anilino]-5-(methylamino)-6-(3-methylimidazo[4,5-c]pyridin-7-yl)pyrazine-2-carboxamide], the “Max IL-2 conc” value in the assay with human CD3+ T cells was determined as 0.37 µM. Also, the EC50 was found to be 0.023 µM with human CD3+ T cells and 0.065 µM with pSLP76 [1].

Turning to `CNc1nc(Nc2ccc(CN3CC4(COC4)C3)cc2Cl)c(C(N)=O)nc1-c1cncc2c1ncn2C` [Example 148, 3-[2-Chloro-4-(2-oxa-6-azaspiro[3.3]heptan-6-ylmethyl)anilino]-5-(methylamino)-6-(3-methylimidazo[4,5-c]pyridin-7-yl)pyrazine-2-carboxamide formate salt], in the assay on human CD3+ T cells, the “Max IL-2 conc” value stood at 3.33 µM and the EC50 turned out to be 0.325 µM. Also, in the assay with pSLP76 [1], the response was half-maximal at 1.08 µM (EC50).

For `CNc1nc(Nc2cn(C3CCN(C)CC3)nc2C)c(C(N)=O)nc1-c1cccc2c1ncn2C` [Example 206, 5-(Methylamino)-6-(1-methylbenzimidazol-4-yl)-3-[[3-methyl-1-(1-methyl-4-piperidyl)pyrazol-4-yl]amino]pyrazine-2-carboxamide formate salt], the “Max IL-2 conc” value in the assay on human CD3+ T cells came out at 1.11 µM. In addition, the results for the concentration for a half-maximal effect (EC50) with human CD3+ T cells, in the assay on pSLP76 [1] and with pSLP76 [2] were 0.091 µM, 0.44 µM and 0.32 µM, respectively.

With `CNc1nc(Nc2cn(C(C)(C)C#N)nc2C)c(C(N)=O)nc1-c1cncc2c1ncn2C` [Example 211, 3-[[1-(1-Cyano-1-methyl-ethyl)-3-methyl-pyrazol-4-yl]amino]-5-(methylamino)-6-(3-methylimidazo[4,5-c]pyridin-7-yl)pyrazine-2-carboxamide], in the assay with human CD3+ T cells, the “Max IL-2 conc” value was 3.33 µM. Moreover, the values for the half-maximal effective concentration (EC50) in the assay on human CD3+ T cells and in the assay with pSLP76 [2] were 0.276 µM and 0.34 µM, respectively.

As to `Cc1nn(CC(F)(F)F)cc1Nc1nc(C2CC2)c(-c2cncc3c2ncn3C)nc1C(N)=O` [Example 213, 5-Cyclopropyl-6-(3-methylimidazo[4,5-c]pyridin-7-yl)-3-[[3-methyl-1-(2,2,2-trifluoroethyl)pyrazol-4-yl]amino]pyrazine-2-carboxamide], the EC50 was determined as 0.053 µM in the assay on human CD3+ T cells and 0.05 µM in the assay on pSLP76 [1].

As for `Cc1nn(C2COC2)cc1Nc1nc(C2CC2)c(-c2cncc3c2ncn3C)nc1C(N)=O` [Example 224, 5-Cyclopropyl-6-(3-methylimidazo[4,5-c]pyridin-7-yl)-3-[[3-methyl-1-(oxetan-3-yl)pyrazol-4-yl]amino]pyrazine-2-carboxamide], in the assay with human CD3+ T cells, the “Max IL-2 conc” value turned out to be 3.33 µM and the EC50 came to 0.12 µM.
